Measurements taken from the supplement of paper PMC11451515.

Test system: SEM cells
Test: cell viability relative to DMSO control; higher = less cytotoxic
Settings: 48 h
Method in brief: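 Library compounds in DMSO were pin-dosed in an 11-point threefold series (47 μM to 0.79 nM) onto leukemia cells in 1536-well plates (5 μl). Plates held 500 cells/well of NOMO1 or SEM or 1000 cells/well of P12-Ichikawa, each adapted for at least four passages in each medium. Luminescence was read with CellTiter-Glo One after 48 h at 37°C. Viability means the per-plate percentage relative to DMSO wells, using cell-free wells as background.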

[1] = HPLM + 10% dialyzed FBS, 0.000781 µM
[2] = HPLM + 10% dialyzed FBS, 0.00234 µM
[3] = HPLM + 10% dialyzed FBS, 0.00702 µM
[4] = HPLM + 10% dialyzed FBS, 0.0211 µM
[5] = HPLM + 10% dialyzed FBS, 0.0632 µM
[6] = HPLM + 10% dialyzed FBS, 0.19 µM
[7] = HPLM + 10% dialyzed FBS, 0.569 µM
[8] = HPLM + 10% dialyzed FBS, 1.71 µM
[9] = HPLM + 10% dialyzed FBS, 5.12 µM
[10] = HPLM + 10% dialyzed FBS, 15.4 µM
[11] = HPLM + 10% dialyzed FBS, 46.1 µM
[12] = RPMI 5 mM glucose + 10% FBS, 0.000781 µM
[13] = RPMI 5 mM glucose + 10% FBS, 0.00234 µM
[14] = RPMI 5 mM glucose + 10% FBS, 0.00702 µM
[15] = RPMI 5 mM glucose + 10% FBS, 0.0211 µM
[16] = RPMI 5 mM glucose + 10% FBS, 0.0632 µM
[17] = RPMI 5 mM glucose + 10% FBS, 0.19 µM
[18] = RPMI 5 mM glucose + 10% FBS, 0.569 µM
[19] = RPMI 5 mM glucose + 10% FBS, 1.71 µM
[20] = RPMI 5 mM glucose + 10% FBS, 5.12 µM
[21] = RPMI 5 mM glucose + 10% FBS, 15.4 µM
[22] = RPMI 5 mM glucose + 10% FBS, 46.1 µM
[23] = RPMI 5 mM glucose + 10% dialyzed FBS, 0.000781 µM
[24] = RPMI 5 mM glucose + 10% dialyzed FBS, 0.00234 µM
[25] = RPMI 5 mM glucose + 10% dialyzed FBS, 0.00702 µM
[26] = RPMI 5 mM glucose + 10% dialyzed FBS, 0.0211 µM
[27] = RPMI 5 mM glucose + 10% dialyzed FBS, 0.0632 µM
[28] = RPMI 5 mM glucose + 10% dialyzed FBS, 0.19 µM
[29] = RPMI 5 mM glucose + 10% dialyzed FBS, 0.569 µM
[30] = RPMI 5 mM glucose + 10% dialyzed FBS, 1.71 µM
[31] = RPMI 5 mM glucose + 10% dialyzed FBS, 5.12 µM
[32] = RPMI 5 mM glucose + 10% dialyzed FBS, 15.4 µM
[33] = RPMI 5 mM glucose + 10% dialyzed FBS, 46.1 µM

SMILES	cell viability [1]	cell viability [2]	cell viability [3]	cell viability [4]	cell viability [5]	cell viability [6]	cell viability [7]	cell viability [8]	cell viability [9]	cell viability [10]	cell viability [11]	cell viability [12]	cell viability [13]	cell viability [14]	cell viability [15]	cell viability [16]	cell viability [17]	cell viability [18]	cell viability [19]	cell viability [20]	cell viability [21]	cell viability [22]	cell viability [23]	cell viability [24]	cell viability [25]	cell viability [26]	cell viability [27]	cell viability [28]	cell viability [29]	cell viability [30]	cell viability [31]	cell viability [32]	cell viability [33]
N#Cc1ccc(Oc2ccc3c(c2)COB3O)cc1	111%	122%	111%	104%	124%	114%	126%	114%	117%	105%	46.4%	105%	108%	112%	92.3%	122%	114%	115%	133%	120%	129%	26.9%	115%	127%	119%	85%	126%	107%	120%	129%	97.3%	124%	38.4%
CCc1cc(C(N)=S)ccn1	80.7%	81.5%	88%	86.3%	91.5%	92.3%	90.8%	89.8%	91.2%	54.7%	84.7%	112%	103%	98.1%	108%	104%	107%	102%	97.8%	88.4%	36.1%	68.7%	94.9%	99.1%	89.8%	106%	101%	116%	102%	94.5%	100%	53.9%	64.2%
CCn1c(-c2nonc2N)nc2c(C#CC(C)(C)O)ncc(OC[C@H]3CCCNC3)c21	78.7%	83.1%	87.2%	86.4%	75.2%	82.7%	76.9%	66.2%	70.3%	43%	10.5%	104%	96.6%	107%	94.1%	75.7%	99.2%	96.4%	64.9%	77.7%	60%	14.8%	85.8%	85.2%	95.8%	75.7%	68.6%	97.1%	90.7%	53.9%	62.8%	43.6%	14.1%
